Results taken from publication PMC11642016 (International Journal of Molecular Sciences, 2024).
Where “and” joins values, the source holds several entries; their conditions need not be identical. Equal entries are not always repeated. Where two headings read alike, the source gives them in different places.

How the values were obtained:
[1] = system: Fadu cells; assay: CellTiter-Glo luminescent cell viability assay, Fadu; conditions: for Fadu Cell viability (% of controll): dose–response, individual replicates
[2] = system: HEK293T WT cells; assay: CellTiter-Glo cell viability assay, HEK293T WT; conditions: for HEK293T WT Cell viability (% of controll): 72 h, dose–response, individual replicates
Procedure: (§1) Primary fibroblast cultures were prepared from human skin biopsies and maintained in DMEM supplemented with 10% FBS, 1% penicillin-streptomycin, and 1% MEM Non-Essential Amino Acids Solution (Thermo Fisher Scientific). […] All cell lines were cultured in a humidified atmosphere at 37 °C and 5% CO2, passaged twice a week, and the experiments were performed on cells between passage 5 and 15. The cell lines were routinely screened for the absence of mycoplasma infection (DAPI staining).
(§2) The effects of the synthesized compounds on cell viability were measured using the CellTiter-Glo® luminescent cell viability assay (Promega, Madison, WI, USA), according to the manufacturer’s instructions. Briefly, cells were seeded onto a flat-bottomed, white 96-well plate (BRANDplates, cat. no.: 781965)), with the following densities: PANC-1: 750 cells/well, Fadu: 2000 cells/well, primary fibroblasts: 2000 cells/well, HEK293T WT: 1000 cells/well, HEK293T CLPP^−/−: 2500 cells/well. After seeding, cells were incubated for a further 48 h before treatment. Cells were treated with the compounds for 72 h. Three concentrations (25.0 µM; 8.3 µM; 2.8 µM) were applied during the initial cell viability screening, while for the determination of dose–response curves, 1.5-fold serially diluted compound concentrations were applied (range: 26 µM–0.7 µM). After treatment, the luminescence signal was recorded using a microplate reader (BioTek Synergy 2 Multi-Mode Reader, BioTek, Winooski, VT, USA).
(§3) Data analysis was performed using GraphPad Prism 9.5.0 software (GraphPad Software, San Diego, CA, USA). […] The dose–response curves were generated by four-parameter nonlinear regression, and the IC50 values were determined as the means ± SEM of the best-fit values of 3 independent measurements. The R^2 values were consistently above 0.93, indicating a strong fit of the model to the experimental data (Supplementary S.89). […] Dunnett’s post hoc test was applied to adjust for multiple comparisons, minimizing the likelihood of false positive results. Assumptions for ANOVA, including normality (assessed via QQ plots) and homogeneity of variance (tested using the Brown–Forsythe test), were verified. The following significance levels were applied: * p < 0.05, ** p < 0.01, *** p < 0.001, **** p < 0.0001. […] The tumor selectivity of the compounds was quantitatively characterized by the selectivity index (SI). This parameter was calculated as the ratio of the average best-fit IC50 value for primary fibroblasts and the best-fit IC50 value for the corresponding tumor cells (PANC-1 or Fadu).

[3] = system: PANC-1 and Fadu cells; assay: CellTiter-Glo viability, statements covering both cancer cell lines; format: cell-based, human; conditions: 72 h dose–response
Procedure: The effects of the synthesized compounds on cell viability were measured using the CellTiter-Glo® luminescent cell viability assay (Promega, Madison, WI, USA), according to the manufacturer’s instructions. […] After seeding, cells were incubated for a further 48 h before treatment. Cells were treated with the compounds for 72 h. […] After treatment, the luminescence signal was recorded using a microplate reader (BioTek Synergy 2 Multi-Mode Reader, BioTek, Winooski, VT, USA).

[4] = system: non-tumorous primary fibroblast cells; assay: CellTiter-Glo luminescent cell viability assay, primary fibroblasts; conditions: for Primer fibroblast Cell viability (% of controll): 72 h, dose–response, individual replicates
[5] = system: HEK293T CLPP^−/− cells; assay: CellTiter-Glo cell viability assay, HEK293T CLPP−/− (ClpP dependence); conditions: for HEK293T CLPP-/- Cell viability (% of controll): individual replicates;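 on all read-outs here: CellTiter-Glo luminescent signal read on a microplate reader once HEK293T CLPP−/− cells had been exposed to compounds for 72 h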
Procedure: as §1, §2, §3

[6] = system: PANC-1 cells; assay: Colony formation (clonogenic) assay; format: cell-based, human; conditions: 4 µM
[7] = system: PANC-1 cells; assay: CellTiter-Glo luminescent cell viability assay, PANC-1; conditions: for PANC-1 Cell viability (% of controll): dose–response, individual replicates

With CNCC#Cc1cccc(CN2C(=O)C3=C(CCN(Cc4ccc(-n5cc(-[c-]6cccc6)nn5)cc4)C3)N3CCN=C23)c1.[Fe+2].c1cc[cH-]c1 [38a] the “Fadu Cell viability (% of controll)” value ([1]; 0.7 μM, 72 h) was 109 % of controll and 115 % of controll and 106 % of controll, the “Fadu Cell viability (% of controll)” value ([1]; 1 μM, 72 h) was 110 % of controll and 106 % of controll and 105 % of controll and the “Fadu Cell viability (% of controll)” value ([1]; 1.5 μM, 72 h) was 102 % of controll and 103 % of controll and 100 % of controll. For the same compound, the “Fadu Cell viability (% of controll)” value ([1]; 2.3 μM, 72 h) was 96 % of controll and 91 % of controll and 87 % of controll, the “Fadu Cell viability (% of controll)” value ([1]; 3.4 μM, 72 h) was 43 % of controll and 13 % of controll (2×) and the “Fadu Cell viability (% of controll)” value ([1]; 5.1 μM, 72 h) was 0 % of controll. The “Fadu Cell viability (% of controll)” value ([1]; 7.7 μM, 72 h) was 0 % of controll, the “Fadu Cell viability (% of controll)” value ([1]; 17.3 μM, 72 h) was 0 % of controll and the “Fadu Cell viability (% of controll)” value ([1]; 26 μM, 72 h) was 0 % of controll. For the same compound, the “Cell Viability (% of Control) 2.8 µM” value ([1]; Fadu, 2.8 µM, 72 h, second-set screening, mean ± SD, n = 2) was 85 ± 16 % of Control, the “Cell Viability (% of Control) 8.3 µM” value ([1]; Fadu, 8.3 µM, 72 h, second-set screening, mean ± SD, n = 2) was 0 ± 1 % of Control and the “Cell Viability (% of Control) 25 µM” value ([1]; Fadu, 25 µM, 72 h, second-set screening, mean ± SD, n = 2) was 0 ± 0 % of Control. The “Selectivity Index (SI) Fibroblast/Fadu” value ([1]; ratio of mean best-fit IC50 for primary fibroblasts and best-fit IC50 for Fadu) was 1.6, the IC50 ([1]; read-out: Fadu IC50 values, individual replicates n1-n3, IC50 independently determined for each replicate measurement (Supplement S.6)) was 3.2 µM and 2.75 µM (2×) and the IC50 ([1]; read-out: IC50 Value ± SEM Fadu, 72 h treatment, best-fit values, n = 3) was 2900 ± 60 nM. For the same compound, the “HEK293T WT Cell viability (% of controll)” value ([2]; 0.4 μM) was 106 % of controll and 101 % of controll and 99 % of controll and 100 % of controll, the “HEK293T WT Cell viability (% of controll)” value ([2]; 0.6 μM) was 106 % of controll (2×) and 109 % of controll and 81 % of controll and the “HEK293T WT Cell viability (% of controll)” value ([2]; 1.0 μM) was 82 % of controll and 90 % of controll and 94 % of controll and 81 % of controll. For the same compound, the “HEK293T WT Cell viability (% of controll)” value ([2]; 1.6 μM) was 65 % of controll and 60 % of controll and 52 % of controll (2×), the “HEK293T WT Cell viability (% of controll)” value ([2]; 2.5 μM) was 11 % of controll and 6 % of controll and 5 % of controll (2×) and the “HEK293T WT Cell viability (% of controll)” value ([2]; 4.0 μM) was 0 % of controll. The “HEK293T WT Cell viability (% of controll)” value ([2]; 6.4 μM) was 0 % of controll, the “HEK293T WT Cell viability (% of controll)” value ([2]; 16.25 μM) was 0 % of controll and the “HEK293T WT Cell viability (% of controll)” value ([2]; 26 μM) was 0 % of controll. The IC50 ([2]; read-out: HEK293T WT IC50 values, individual replicates n1-n4, IC50 independently determined for each replicate measurement (Supplement S.6)) was 1.6 µM and 1.5 µM and 1.65 µM and 1.62 µM, the IC50 ([2]; read-out: IC50 (µM) HEK293T WT, 72 h treatment, ± SEM, best-fit values, n = 4) was 1.6 ± 0.04 µM and the “concentration range of almost complete eradication of PANC-1 and Fadu cells with little to no cytotoxic effect toward fibroblasts” value [3] was 3000 to 4000 nM. The “Primer fibroblast Cell viability (% of controll)” value ([4]; 0.7 μM) was 97 % of controll and 105 % of controll and 109 % of controll, the “Primer fibroblast Cell viability (% of controll)” value ([4]; 1 μM) was 111 % of controll and 113 % of controll and 100 % of controll and the “Primer fibroblast Cell viability (% of controll)” value ([4]; 1.5 μM) was 105 % of controll and 113 % of controll and 100 % of controll. The “Primer fibroblast Cell viability (% of controll)” value ([4]; 2.3 μM) was 105 % of controll and 107 % of controll and 101 % of controll, the “Primer fibroblast Cell viability (% of controll)” value ([4]; 3.4 μM) was 108 % of controll (2×) and 100 % of controll and the “Primer fibroblast Cell viability (% of controll)” value ([4]; 5.1 μM) was 9 % of controll (2×) and 6 % of controll. For the same compound, the “Primer fibroblast Cell viability (% of controll)” value ([4]; 7.7 μM) was 0 % of controll, the “Primer fibroblast Cell viability (% of controll)” value ([4]; 17.3 μM) was 0 % of controll and the “Primer fibroblast Cell viability (% of controll)” value ([4]; 26 μM) was 0 % of controll. The IC50 ([4]; read-out: IC50 Value ± SEM Primary Fibroblast, 72 h treatment, best-fit values, n = 3) was 4600 ± 830 nM, the IC50 ([4]; read-out: Primary fibroblast IC50 values, Mean, mean of independently fitted replicate IC50 values (Supplement S.6), ONC201 value mathematically estimated from inflection point) was 4630 nM and the IC50 ([4]; read-out: Primary fibroblast IC50 values, individual replicates n1-n3, IC50 independently determined for each replicate (Supplement S.6), ONC201 value mathematically estimated from inflection point, viability stayed above 50%) was 4800 nM and 4280 nM. The “HEK293T CLPP-/- Cell viability (% of controll)” value ([5]; 0.4 μM, 72 h, dose–response, listed as CZT456, 0.4 µM) was 109 % of controll and 108 % of controll and 110 % of controll and 114 % of controll, the “HEK293T CLPP-/- Cell viability (% of controll)” value ([5]; 0.6 μM, 72 h, dose–response, listed as CZT456, 0.6 µM) was 111 % of controll and 109 % of controll and 110 % of controll and the “HEK293T CLPP-/- Cell viability (% of controll)” value ([5]; 1.0 μM, 72 h, dose–response, listed as CZT456, 1 µM) was 105 % of controll and 107 % of controll and 106 % of controll. For the same compound, the “HEK293T CLPP-/- Cell viability (% of controll)” value ([5]; 1.6 μM, 72 h, dose–response, listed as CZT456, 1.6 µM) was 92 % of controll and 96 % of controll and 103 % of controll and 93 % of controll, the “HEK293T CLPP-/- Cell viability (% of controll)” value ([5]; 2.5 μM, 72 h, dose–response, listed as CZT456, 2.5 µM) was 41 % of controll and 59 % of controll and 55 % of controll and 48 % of controll and the “HEK293T CLPP-/- Cell viability (% of controll)” value ([5]; 4.0 μM, 72 h, dose–response, listed as CZT456, 4 µM) was 1 % of controll and 8 % of controll and 9 % of controll. The “HEK293T CLPP-/- Cell viability (% of controll)” value ([5]; 6.4 μM, 72 h, dose–response) was 0 % of controll, the “HEK293T CLPP-/- Cell viability (% of controll)” value ([5]; 16.25 μM, 72 h, dose–response) was 0 % of controll and the “HEK293T CLPP-/- Cell viability (% of controll)” value ([5]; 26 μM, 72 h, dose–response) was 0 % of controll. For the same compound, the “effect on the viability of HEK293T CLPP^−/− cells” value ([5]; dose–response, 72 h, compared with HEK293T WT) was “maintained”, the IC50 ([5]; read-out: IC50 (µM) HEK293T CLPP^−/−, 72 h treatment, ± SEM, best-fit values, n = 4) was 2.4 ± 0.03 µM and the “viable cells / colonies after shorter exposure” value ([6]; 24 h treatment followed by 5 days post-incubation) was “left only traces of viable cells”. The “viable cells / colonies after longer exposure” value ([6]; 72 h treatment followed by 3 days post-incubation) was “no viable cells were discernible”, the “PANC-1 Cell viability (% of controll)” value ([7]; 0.7 μM, 72 h) was 112 % of controll and 107 % of controll and 109 % of controll and the “PANC-1 Cell viability (% of controll)” value ([7]; 1 μM, 72 h) was 107 % of controll and 114 % of controll and 110 % of controll. The “PANC-1 Cell viability (% of controll)” value ([7]; 1.5 μM, 72 h) was 116 % of controll and 119 % of controll and 108 % of controll, the “PANC-1 Cell viability (% of controll)” value ([7]; 2.3 μM, 72 h) was 97 % of controll and 105 % of controll and 115 % of controll and the “PANC-1 Cell viability (% of controll)” value ([7]; 3.4 μM, 72 h) was 2 % of controll (2×) and 4 % of controll. For the same compound, the “PANC-1 Cell viability (% of controll)” value ([7]; 5.1 μM, 72 h) was 0 % of controll, the “PANC-1 Cell viability (% of controll)” value ([7]; 7.7 μM, 72 h) was 0 % of controll and the “PANC-1 Cell viability (% of controll)” value ([7]; 17.3 μM, 72 h) was 0 % of controll. For the same compound, the “PANC-1 Cell viability (% of controll)” value ([7]; 26 μM, 72 h) was 0 % of controll, the “Cell Viability (% of Control) 2.8 µM” value ([7]; PANC-1, 2.8 µM, 72 h, second-set screening, mean ± SD, n = 2) was 44 ± 41 % of Control and the “Cell Viability (% of Control) 8.3 µM” value ([7]; PANC-1, 8.3 µM, 72 h, second-set screening, mean ± SD, n = 2) was 0 ± 0 % of Control. For the same compound, the “Cell Viability (% of Control) 25 µM” value ([7]; PANC-1, 25 µM, 72 h, second-set screening, mean ± SD, n = 2) was 0 ± 0 % of Control, the “Selectivity Index (SI) Fibroblast/PANC-1” value ([7]; ratio of mean best-fit IC50 for primary fibroblasts and best-fit IC50 for PANC-1) was 1.7 and the IC50 ([7]; read-out: IC50 Value ± SEM PANC-1, 72 h treatment, best-fit values, n = 3) was 2700 ± 70 nM. The IC50 ([7]; read-out: PANC-1 IC50 values, Mean, mean of independently fitted replicate IC50 values (Supplement S.6)) was 2710 nM and the IC50 ([7]; read-out: PANC-1 IC50 values, individual replicates n1-n3, IC50 independently determined for each replicate measurement (Supplement S.6)) was 2790 nM and 2620 nM and 2720 nM.
